Tests used:
Assay type in all cases: in vivo
[1] = test system: barnyardgrass (Echinochloa crus-galli, ECHCG); test: Post-emerge test, greenhouse herbicide activity screening; details: phytotoxicity rating 0-100 (0 no damage, 100 complete death), 14 days after application
Procedure, shortened: (§1)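 Plants grown in 10 cm pots of sandy loam mix received acetone-dissolved compounds through a moving flat-fan nozzle. Doses ranged from 15 to 1000 g ai/ha. Pre-emerge pots were seeded one day earlier, post-emerge pots 8–21 days earlier. Fourteen days on, each pot was graded 0–100 for damage.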

[2] = test system: common ragweed (Ambrosia artemisizfolia L., AMBEL); test: as above; details: phytotoxicity rating 0-100 (0 no damage, 100 complete death), 14 days after application
Procedure, shortened: as §1

[3] = test system: velvetleaf (Abutilon theophrasti, ABUTH); test: as above; details: phytotoxicity rating 0-100 (0 no damage, 100 complete death), 14 days after application
Procedure, shortened: as §1

[4] = test system: johnsongrass (Sorghum halepense, SORHA); test: as above; details: phytotoxicity rating 0-100 (0 no damage, 100 complete death), 14 days after application
Procedure, shortened: as §1

[5] = test system: green foxtail (Setaria viridis, SETVI); test: as above; details: phytotoxicity rating 0-100 (0 no damage, 100 complete death), 14 days after application
Procedure, shortened: as §1

[6] = test system: sicklepod (Cassia obtusifolia, CASOB); test: as above; details: phytotoxicity rating 0-100 (0 no damage, 100 complete death), 14 days after application
Procedure, shortened: as §1

[7] = test system: redroot pigweed (Amaranthus retroflexus, AMARE); test: as above; details: phytotoxicity rating 0-100 (0 no damage, 100 complete death), 14 days after application
Procedure, shortened: as §1

[8] = test system: lambsquarters (Chenopodium album, CHEAL); test: as above; details: phytotoxicity rating 0-100 (0 no damage, 100 complete death), 14 days after application
Procedure, shortened: as §1

[9] = test system: large crabgrass (Digitaria sanguinalis, DIGSA); test: as above; details: phytotoxicity rating 0-100 (0 no damage, 100 complete death), 14 days after application
Procedure, shortened: as §1

[10] = test system: ivyleaf morningglory (Ipomoea hederacea, IPOHE); test: as above; details: phytotoxicity rating 0-100 (0 no damage, 100 complete death), 14 days after application
Procedure, shortened: as §1

[11] = test system: redroot pigweed (Amaranthus retroflexus, AMARE); test: Pre-emerge test, greenhouse herbicide activity screening; details: pre-emerge, rated 14 days after application, 0 = no damage, 100 = complete death
Procedure, shortened: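 Compounds in acetone were track-sprayed at 15-1000 g ai/ha (187 l/ha) on sandy loam pots: pre-emerge one day after seeding, post-emerge at 2-3 leaf stage with 0.25% v/v non-ionic surfactant. Phytotoxicity was rated 14 days later on a 0 (no damage) to 100 (complete death) scale.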

[12] = test system: upland rice (Oryza sp., var. Tebonnet, RICE); test: Post-emerge test, crop safety; details: phytotoxicity rating 0-100 (0 no damage, 100 complete death), 14 days after application
Procedure, shortened: as §1

[13] = test system: field corn (Zea mays L., var. Dekalb 535, CORN); test: Post-emerge test, crop safety; details: phytotoxicity rating 0-100 (0 no damage, 100 complete death), 14 days after application
Procedure, shortened: as §1

[14] = test system: barnyardgrass (Echinochloa crus-galli, ECHCG); test: Pre-emerge test, greenhouse herbicide activity screening; details: pre-emerge, rated 14 days after application, 0 = no damage, 100 = complete death
Procedure, shortened: (§2)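 Rating: 0–100 visual injury, 14 DAA. Application: acetone, 187 l/ha, 15–1000 g ai/ha, flat-fan track sprayer with nozzle 40–45 cm above soil or canopy. Post-emerge runs used 0.25% v/v surfactant on 2–3 leaf plants.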

[15] = test system: common ragweed (Ambrosia artemisizfolia L., AMBEL); test: as above; details: pre-emerge, rated 14 days after application, 0 = no damage, 100 = complete death
Procedure, shortened: as §2

[16] = test system: velvetleaf (Abutilon theophrasti, ABUTH); test: as above; details: pre-emerge, rated 14 days after application, 0 = no damage, 100 = complete death
Procedure, shortened: as §2

[17] = test system: johnsongrass (Sorghum halepense, SORHA); test: as above; details: pre-emerge, rated 14 days after application, 0 = no damage, 100 = complete death
Procedure, shortened: as §2

[18] = test system: green foxtail (Setaria viridis, SETVI); test: as above; details: pre-emerge, rated 14 days after application, 0 = no damage, 100 = complete death
Procedure, shortened: as §2

[19] = test system: sicklepod (Cassia obtusifolia, CASOB); test: as above; details: pre-emerge, rated 14 days after application, 0 = no damage, 100 = complete death
Procedure, shortened: as §2

[20] = test system: lambsquarters (Chenopodium album, CHEAL); test: as above; details: pre-emerge, rated 14 days after application, 0 = no damage, 100 = complete death
Procedure, shortened: as §2

[21] = test system: large crabgrass (Digitaria sanguinalis, DIGSA); test: as above; details: pre-emerge, rated 14 days after application, 0 = no damage, 100 = complete death
Procedure, shortened: as §2

[22] = test system: ivyleaf morningglory (Ipomoea hederacea, IPOHE); test: as above; details: pre-emerge, rated 14 days after application, 0 = no damage, 100 = complete death
Procedure, shortened: as §2

[23] = test system: upland rice (Oryza sp., var. Tebonnet, RICE); test: Pre-emerge test, crop safety; details: pre-emerge, rated 14 days after application, 0 = no damage, 100 = complete death
Procedure, shortened: (§3)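 Herbicidal damage is scored 0 (none) to 100 (complete plant death) two weeks after a simulated field spray. Rates span 15–1000 g ai/ha, delivered in acetone at 187 l/ha. For post-emergence treatments, plants have 2–3 leaves and the spray carries 0.25% v/v non-ionic surfactant.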

[24] = test system: field corn (Zea mays L., var. Dekalb 535, CORN); test: Pre-emerge test, crop safety; details: pre-emerge, rated 14 days after application, 0 = no damage, 100 = complete death
Procedure, shortened: as §3

In the case of `Cn1c(C(F)(F)F)cc(=O)n(-c2c(F)cc(Cl)c(OC3CCCC3)c2N)c1=O` [Compound 1-21], the “Post-emerge Herbicidal Activity ECHCG” value ([1]; 63 g ai/ha) is reported as 0, the “Post-emerge Herbicidal Activity ECHCG” value ([1]; 250 g ai/ha) is reported as 0 and the “Post-emerge Herbicidal Activity AMBEL” value ([2]; 63 g ai/ha) is reported as 10. For the same compound, the “Post-emerge Herbicidal Activity AMBEL” value ([2]; 250 g ai/ha) was 30, the “Post-emerge Herbicidal Activity ABUTH” value ([3]; 63 g ai/ha) was 85 and the “Post-emerge Herbicidal Activity ABUTH” value ([3]; 250 g ai/ha) was 100. The “Post-emerge Herbicidal Activity SORHA” value ([4]; 63 g ai/ha) was 0, the “Post-emerge Herbicidal Activity SORHA” value ([4]; 250 g ai/ha) was 0 and the “Post-emerge Herbicidal Activity SETVI” value ([5]; 63 g ai/ha) was 10. The “Post-emerge Herbicidal Activity SETVI” value ([5]; 250 g ai/ha) was 30, the “Post-emerge Herbicidal Activity CASOB” value ([6]; 63 g ai/ha) was 10 and the “Post-emerge Herbicidal Activity CASOB” value ([6]; 250 g ai/ha) was 30. The “Post-emerge Herbicidal Activity AMARE” value ([7]; 63 g ai/ha) was 95, the “Post-emerge Herbicidal Activity AMARE” value ([7]; 250 g ai/ha) was 100 and the “Post-emerge Herbicidal Activity CHEAL” value ([8]; 63 g ai/ha) was 75. The “Post-emerge Herbicidal Activity CHEAL” value ([8]; 250 g ai/ha) was 95, the “Post-emerge Herbicidal Activity DIGSA” value ([9]; 63 g ai/ha) was 0 and the “Post-emerge Herbicidal Activity DIGSA” value ([9]; 250 g ai/ha) was 0. The “Post-emerge Herbicidal Activity IPOHE” value ([10]; 63 g ai/ha) was 70, the “Post-emerge Herbicidal Activity IPOHE” value ([10]; 250 g ai/ha) was 90 and the “Pre-emerge Herbicidal Activity AMARE (phytotoxicity rating, scale 0-100)” value ([11]; 63 g ai/ha) was 98. For the same compound, the “Pre-emerge Herbicidal Activity AMARE (phytotoxicity rating, scale 0-100)” value ([11]; 250 g ai/ha) was 100, the “Post-emerge Herbicidal Activity RICE (crop damage)” value ([12]; 63 g ai/ha) was 10 and the “Post-emerge Herbicidal Activity RICE (crop damage)” value ([12]; 250 g ai/ha) was 10. The “Post-emerge Herbicidal Activity CORN (crop damage)” value ([13]; 63 g ai/ha) was 5, the “Post-emerge Herbicidal Activity CORN (crop damage)” value ([13]; 250 g ai/ha) was 5 and the “Pre-emerge Herbicidal Activity ECHCG (phytotoxicity rating, scale 0-100)” value ([14]; 63 g ai/ha) was 0. For the same compound, the “Pre-emerge Herbicidal Activity ECHCG (phytotoxicity rating, scale 0-100)” value ([14]; 250 g ai/ha) was 95, the “Pre-emerge Herbicidal Activity AMBEL (phytotoxicity rating, scale 0-100)” value ([15]; 63 g ai/ha) was 0 and the “Pre-emerge Herbicidal Activity AMBEL (phytotoxicity rating, scale 0-100)” value ([15]; 250 g ai/ha) was 100. The “Pre-emerge Herbicidal Activity ABUTH (phytotoxicity rating, scale 0-100)” value ([16]; 63 g ai/ha) was 70, the “Pre-emerge Herbicidal Activity ABUTH (phytotoxicity rating, scale 0-100)” value ([16]; 250 g ai/ha) was 100 and the “Pre-emerge Herbicidal Activity SORHA (phytotoxicity rating, scale 0-100)” value ([17]; 63 g ai/ha) was 0. The “Pre-emerge Herbicidal Activity SORHA (phytotoxicity rating, scale 0-100)” value ([17]; 250 g ai/ha) was 90, the “Pre-emerge Herbicidal Activity SETVI (phytotoxicity rating, scale 0-100)” value ([18]; 63 g ai/ha) was 95 and the “Pre-emerge Herbicidal Activity SETVI (phytotoxicity rating, scale 0-100)” value ([18]; 250 g ai/ha) was 100. For the same compound, the “Pre-emerge Herbicidal Activity CASOB (phytotoxicity rating, scale 0-100)” value ([19]; 63 g ai/ha) was 0, the “Pre-emerge Herbicidal Activity CASOB (phytotoxicity rating, scale 0-100)” value ([19]; 250 g ai/ha) was 0 and the “Pre-emerge Herbicidal Activity CHEAL (phytotoxicity rating, scale 0-100)” value ([20]; 63 g ai/ha) was 100. The “Pre-emerge Herbicidal Activity CHEAL (phytotoxicity rating, scale 0-100)” value ([20]; 250 g ai/ha) was 100, the “Pre-emerge Herbicidal Activity DIGSA (phytotoxicity rating, scale 0-100)” value ([21]; 63 g ai/ha) was 70 and the “Pre-emerge Herbicidal Activity DIGSA (phytotoxicity rating, scale 0-100)” value ([21]; 250 g ai/ha) was 100. The “Pre-emerge Herbicidal Activity IPOHE (phytotoxicity rating, scale 0-100)” value ([22]; 63 g ai/ha) was 0, the “Pre-emerge Herbicidal Activity IPOHE (phytotoxicity rating, scale 0-100)” value ([22]; 250 g ai/ha) was 40 and the “Pre-emerge crop damage RICE (phytotoxicity rating, scale 0-100)” value ([23]; 63 g ai/ha) was 0. The “Pre-emerge crop damage RICE (phytotoxicity rating, scale 0-100)” value ([23]; 250 g ai/ha) was 10, the “Pre-emerge crop damage CORN (phytotoxicity rating, scale 0-100)” value ([24]; 63 g ai/ha) was 0 and the “Pre-emerge crop damage CORN (phytotoxicity rating, scale 0-100)” value ([24]; 250 g ai/ha) was 0.
